Where “and” joins values, the source holds several entries; their conditions need not be identical. Equal entries are not always repeated.
Columns and labels:
[1] = Pulmonary uptake, exhalation and excretion (mass balance) after intratracheal [14C]-PCB52; format: in vivo, Sprague–Dawley rats
Method: Female Sprague–Dawley rats (8 weeks old) weighing 237–269.7 g (mean = 247.5 g) (Envigo RMS, LLC, Indianapolis, IN) were used for this study. All animal experiments were performed following the protocols evaluated and approved by the University of Iowa Institutional Animal Care and Use Committee (approval number 3091097). After arrival, the animals were acclimated for 7 days. The animals were housed in a light and temperature-controlled environment with ad libitum access to food and water during quarantine and throughout the study. Timed pregnancy was achieved by harem mating. , Briefly, one male and two female rats were placed together in the evening and checked for vaginal plug the following day. If vaginal plug was present, the male was removed from the breeding cage, and the gestation day 0 (GD 0), 0-day post coitum was assigned. Pregnancies were confirmed by ultrasound scan at GD 9. The dams were exposed at GD 11 (±1 day) to capture the period of early organogenesis and hormonal function, which falls within week 3 of human embryonic development. ,− On the day of the experiment, pregnant rats were intratracheally administered an average of 40 μg (range, 35–45 μg) of [^14C]-PCB52 in 100 μL of exposure solution. Although the dose used in this study exceeded the tolerable daily intake (TDI) of PCBs for healthy individuals, which is 1.6 μg per day for an individual weighing 80 kg, the use of higher acute doses has been established in toxicological studies intended for risk assessment. The intratracheal instillation method was chosen for administering [^14C]-PCB52 to represent inhalation exposures, capture exhaled concentration, and efficiently utilize the limited availability of the cost-intensive radiolabeled PCB52. , Although inhalation exposure would better represent real-world exposures to airborne LC-PCBs, it would not allow us to accurately measure the amount of PCB52 exhaled into the air after exposure and is experimentally infeasible. […] All intratracheal instillations were done under light anesthesia, achieved using a 4% isoflurane concentration via a Fortec vaporizer (Cyprane, Keighley, UK). The animals recovered from anesthesia within 1 min. Subsequently, the animals were housed within a cylindrical glass chamber measuring 2 L in volume, equipped with glass drainage mechanisms to facilitate urine collection and a metallic screen to segregate urine from feces (as in Figure S1). Air was drawn from the chamber at 6.0 L/min through a cartridge containing the XAD-2 polymeric resin to capture any exhaled [^14C]-PCB52. For periods longer than 24 h postexposure, exposed dams were placed in a metabolic cage, which was fitted with a cartridge containing XAD-2 to capture exhaled [^14C]-PCB52 as in other end points.
Maternal blood, urine, and feces samples were collected immediately before and at 0.21, 1.67, 12, 24, 48, and 96 h after lung dosing. The exposed dams were euthanized using 4% isoflurane, followed by cervical dislocation and exsanguination via a cardiac puncture. Euthanasia was consistently performed during the light cycle. Dams’ fur was wiped and analyzed for radioactivity. Using the retro-orbital blood collection method, 0.5–1.5 mL ([…] of an exposed pregnant rat’s body weight) of blood sample was collected from each of the dams until the individual dams were necropsied for whole-body tissue harvesting. At the end of the exposure period, the chamber’s interior walls were rinsed separately with water and acetone/hexane (25 – 45 mL) and wiped to measure residues. From the collected whole blood samples, 100 μL were aliquoted into three vials each, and the remaining blood was allowed to clot at room temperature before being centrifuged to yield serum. The placentas, developing fetuses, and whole-body tissue samples were harvested immediately before exposure and at 0.21, 1.67, 12, 24, and 96 h postexposure. […]

[2] = Metabolite extraction and analysis: parent PCB52 and metabolite fractions in tissues and urine after intratracheal [14C]-PCB52; format: in vivo, Sprague–Dawley rats; conditions: for PCB52 share of radioactivity over time / unmetabolized PCB52 share of radioactivity over time: over the 96 h period; for parent PCB52 share of radioactivity: maternal serum
From the text: A complex mixture of confirmed and putative metabolites of PCBs has been reported in the literature. To quantify the metabolites of PCB52 in maternal serum, the developing fetus, liver, brain, lung, and adipose tissue in this study, we employed a series of liquid–liquid extractions with solvents of increasing polarity to separate phenolic, methyl sulfones, and glucuronate/sulfated metabolites. , Recovery experiments used available standards including parent PCB52, 4-OH-PCB52, 3-MeSO2-PCB52, and 4-MeSO2-PCB52 metabolites in biological samples. The levels of the parent compound PCB52 and its extractable metabolites in the samples were determined using a validated liquid scintillation counting method coupled with gas chromatography-electron capture detection (GC-ECD), following our previous protocol. , Individual extractable metabolite was separated using a series of liquid–liquid extractions, employing a graded array of solvents with incrementing polarity to facilitate the partitioning of the analytes according to their inherent lipophilic characteristics (Figure S4). Subsequently, individual fractions were classified into respective categories, including the parent PCB moiety, hydroxylated PCBs (OH-PCBs), methyl sulfonyl PCBs (MeSO2–PCBs), conjugated metabolites, and unextractable components.
Tissue samples (200–400 mg wet weight) were prepared for analysis through a two-step homogenization using 2 mL of hexane/acetone solvent (50% vol/vol). The resultant solution was centrifuged, and then the pellet underwent two successive extractions with 1.5 mL of dichloromethane (DCM), chloroform/methanol (50:50 vol/vol), methanol/water (50:50 vol/vol), and water, respectively. The supernatant from the DCM extraction contained hydroxylated metabolites, whereas the top fractions from the methanol/water extraction had conjugated PCB metabolites. The resultant supernatant from the hexane/acetone extraction was rinsed with Milli-Q water, then extracted with a 0.5 M potassium hydroxide (KOH) solution in 50% ethanol, and triple rinsed with 400 μL of hexane. The hydrophobic fraction was further purified by rinsing with 1 M hydrochloric acid (400 μL). Simultaneously, a plausible MeSO2–PCBs fraction was extracted with 500 μL of anhydrous DMSO, followed by triple hexane rinses (3 × 400 μL). The residual hydrophobic phase was quantified as native PCB52. The quantification of cold PCB52, OH-PCBs (as MeO-PCB derivatives), and MeSO2-PCBs standards in spiked samples was initially performed on a gas chromatograph (Agilent 6890N) equipped with a 63Ni μ-ECD detector and SLB-5MS capillary column (60 m × 0.25 mm I.D., 0.25 μm film thickness; Supelco, St Louis, MO). Subsequently, individual separated fractionation from [^14C]-PCB52-exposed tissue samples was transferred to a prepared scintillation vial, followed by the addition of 10 mL of cocktail solution and analysis by scintillation counter. Any quantifiable radioactivity in the residual pellet was treated as unextractable compounds.

Clc1ccc(Cl)c(-c2cc(Cl)ccc2Cl)c1 [PCB52, 2,2′,5,5′-Tetrachlorobiphenyl]
dose retained ([1]; after 96 h): 41.1%
elimination through feces ([1]; at 96 h postexposure): 42.5%
elimination through urine ([1]; at 96 h postexposure): 14.5%
total elimination ([1]; at 96 h postexposure): 58.9%
exhaled proportion of the administered dose ([1]; by 96 h postexposure): 1.33 ± 0.51%
average lung uptake (administered dose distributed to the systemic circulation) ([1]; intratracheal administration): 99.4 ± 0.5% and 99.40 ± 0.51%
PCB52 share of radioactivity over time ([2]; adipose tissue): 66.0 to 96.8%
unmetabolized PCB52 share of radioactivity over time ([2]; brain): 74.4 to 60.2%
PCB52 share of radioactivity over time ([2]; fetal tissues): 54.1 to 27.7%
unmetabolized PCB52 share of radioactivity over time ([2]; liver): 64.0 to 37.3%
parent PCB52 share of radioactivity ([2]; 0.21 h): 69.4%
parent PCB52 share of radioactivity ([2]; 96 h): 6.8%
PCB52 share of radioactivity over time ([2]; placenta): 67.8 to 28.6%
parent compound in urine ([2]; urine): no detectable parent compound
